Experiments:
grafted femurs = assay: Mouse femoral allograft, micro-CT of grafted femurs (Example 4); format: in vivo, mice
Procedure: Four-mm long bone allografts were harvested from donor mice, and were processed and implanted into […] defects 195 in the femur of other mice and secured in place using a stainless steel intramedullary pin 190, as shown in FIG. 13. One week after surgery, daily injections of 40 μg/kg hrPTH (1-34) (Lilly, Inc., Indianapolis, Ind.) were initiated in half of the mice, while the others received injections of saline control. Weekly x-rays were taken to monitor progression (Faxitron X-Ray LLC, Wheeling, Ill.). One cohort of the study groups used 14 mice from each treatment (PTH and control) for imaging and mechanical material testing and were sacrificed 6 weeks after surgery. Each femur was harvested by disarticulating the hip and knee and removing the intramedullary stainless-steel pin. Specimens were moistened with saline and frozen at -20° C. until thawed for micro-CT imaging and torsion testing. Specimens were scanned at […] isotropic resolution using the Scanco VivaCT 40 (Scanco Medical AG, Bassersdorf, Switzerland). From these 3D images, the graft and callus bone volumes (BVGraft, BVCallus) were measured by manual segmentation, followed by standardized thresholding at a grayscale corresponding to 750 mgHA/cm^3. The cross-sectional polar moment of […]) were computed for each slice throughout the grafted region and the maximum, minimum and average […]) were investigated to determine their contribution to the biomechanics of the grafted femurs. The Union Ratio was also calculated. The Union Ratio measures the graft surface area upon which mineralized callus has formed. If the voxels adjacent to the graft surface are boney callus, the area of that region of the graft is measured and normalized to the total graft surface area. Imaging data (not shown) indicated the bare surface of the graft in blue, with regions of union to the callus depicted as red. Each half (proximal and distal) of the graft was evaluated separately and the lesser ratio of union area to total graft surface area was given as the Union Ratio for that specimen. Callus formation that bridged from host-to-host over the graft was determined by evaluating serial axial cross sections from micro-CT images and given a binary result. These samples were then mechanically tested in torsion. Yield torque (TYield), ultimate torque (TUlt), torsional rigidity (TR), toughness (or work to failure) and the twist at ultimate torque were determined for each specimen. Finally, the mode of failure for each specimen was determined using an x-ray image analysis (not shown). Bone volume quantification was performed from micro-CT imaging. Quantification of micro-CT results for a control and PTH treated (FIGS. 16E-H) specimen was performed. Cross sectional polar moment of inertia, graft were determined. Callus and intramedullary callus bone volumes were quantified for each specimen in a region of interest that extended from the proximal axial slice containing bone graft through the distal slice. These regions were manually segmented and quantified for bone volume, bone mineral density and bone mineral content at a threshold corresponding to 750 mgHA/cm^3. The total depth of penetration of callus into the intramedullary cavity from both ends was also measured. The trabecular-like region within the shell of the exterior callus was segmented for trabecular analysis to quantify BVF, Tb.No., Tb.Th., and Tb.Sp.

[1] = test system: critical 4 mm femoral defects; assay: PLA and PLA/βTCP scaffold reconstruction of critical 4 mm femoral defects, micro-CT and torsion (Example 2); format: in vivo, mouse
From the text: (scale bars 25 in B & C represent 200 microns. Arrow head in panel C points to βTCP particles). Titanium pins 30 were passed through the lumen of the scaffolds 15 (panel D) to be used for fixation of the scaffolds when implanted as standalone femoral graft substitutes in critical 4 mm femoral defects in our previously established mouse model (see Example 1). The grafted animals were either treated with daily (5 days/week) injections of PTH or left untreated (Controls). […] When grafts were harvested at 9 weeks and following micro-CT imaging, scaffold-grafted femurs were tested in torsion at a rate of 1°/sec. […] The scaffold-grafted femurs were tested in torsion to determine their biomechanical properties, including maximum torque (panels A&B), torsional rigidity (panels C&D), and ultimate normalized rotation or twist (panels E&F). Panels A, C, and E show the average properties for both scaffold types in control and PTH treated animals. Panels B, D, and F show the maximum torque, torsional rigidity, and ultimate twist, respectively, of specimens that developed a bridging union compared to non-union control and PTH-treated specimens. Data are presented as mean+SEM. Asterisk indicates significant differences from control (p<0.05).

[2] = 40 μg/kg hrPTH (1-34) daily from week 1, 6 weeks after surgery, mean, n = 14
[3] = vs saline, 6 weeks after surgery

CC[C@H](C)[C@H](NC(=O)[C@H](CCC(=O)O)NC(=O)[C@H](CO)NC(=O)[C@@H](NC(=O)[C@@H](N)CO)C(C)C)C(=O)N[C@@H](CCC(N)=O)C(=O)N[C@@H](CC(C)C)C(=O)N[C@@H](CCSC)C(=O)N[C@@H](Cc1cnc[nH]1)C(=O)N[C@@H](CC(N)=O)C(=O)N[C@@H](CC(C)C)C(=O)NCC(=O)N[C@@H](CCCCN)C(=O)N[C@@H](Cc1cnc[nH]1)C(=O)N[C@@H](CC(C)C)C(=O)N[C@@H](CC(N)=O)C(=O)N[C@@H](CO)C(=O)N[C@@H](CCSC)C(=O)N[C@@H](CCC(=O)O)C(=O)N[C@@H](CCCN=C(N)N)C(=O)N[C@H](C(=O)N[C@@H](CCC(=O)O)C(=O)N[C@@H](Cc1c[nH]c2ccccc12)C(=O)N[C@@H](CC(C)C)C(=O)N[C@@H](CCCN=C(N)N)C(=O)N[C@@H](CCCCN)C(=O)N[C@@H](CCCCN)C(=O)N[C@@H](CC(C)C)C(=O)N[C@@H](CCC(N)=O)C(=O)N[C@@H](CC(=O)O)C(=O)N[C@H](C(=O)N[C@@H](Cc1cnc[nH]1)C(=O)N[C@@H](CC(N)=O)C(=O)N[C@@H](Cc1ccccc1)C(=O)O)C(C)C)C(C)C [PTH, PTH (1-34)]
BMCCallus (grafted femurs; [2]): 2.7 mgHA | BMDCallus (grafted femurs; [2]): 667 mgHA/cc | BVCallus (grafted femurs; [2]): 1.04 mm^3/mm | BVGraft (grafted femurs; [2]): 0.82 mm^3/mm | BVIntramed (grafted femurs; [2]): 0.2 mm^3/mm | Callus Tb. N. (grafted femurs; [2]): 13.2 | Callus Tb. Sp. (grafted femurs; [2]): 0.065 | Callus Tb. Th. (grafted femurs; [2]): 0.149 | Callus trabecular BVF (grafted femurs; [2]): 0.576 | Intramed Penetration Depth (grafted femurs; [2]): 2.22 mm | PMIAve (grafted femurs; [2]): 1.16 mm^4 | PMIMax (grafted femurs; [2]): 2.17 mm^4 | PMIMin (grafted femurs; [2]): 0.51 mm^4 | Union Ratio (grafted femurs; [2]): 0.277 | ratio of callus BMCPTH:BMCSaline (grafted femurs; 6 weeks): 1.67 | maximum outer radius of the callus (grafted femurs; 6 weeks, saline 1.8±0.2 mm): 1.7±0.3 mm | specimens with bridging over the graft from host-to-host (grafted femurs; 6 weeks, saline 6 of 14): 8 of 14 | Union Ratio greater in PTH treated animals (grafted femurs; across all samples, vs saline): 2.8 fold | Intramedullary penetration depth (grafted femurs; grafts from PTH-treated animals, saline 1.7±0.6 mm): 2.2±0.7 mm | Union Ratio of the single PTH-treated specimen of FIG. 15H (grafted femurs; one specimen, saline control specimen 0.02): 0.31 | bone mineral density of the callus, less dense by (grafted femurs; vs saline, 6 weeks): 14% | bone volume fraction within the callus, greater by (grafted femurs; vs saline, 6 weeks): 52% | graft bone volume (graft resorption) (grafted femurs; vs saline, 6 weeks): not different between treatment groups | net callus total mineral content, greater by (grafted femurs; vs saline, 6 weeks): 67% | increase in BVCallus (grafted femurs; [3]): 93% | increase in BVIntramed (grafted femurs; [3]): 217% | increase in PMIAve (grafted femurs; [3]): 38% | increase in PMIMax (grafted femurs; [3]): 26% | Union Ratio, greater by (grafted femurs; vs saline, 6 weeks, p<0.01): 76% | Intramedullary penetration depth, greater by (grafted femurs; vs saline, p=0.12): 28% | animals that developed a mineralized callus bridging the defect (union) ([1]; 9 weeks post-reconstruction, both scaffolds, daily (5 days/week) PTH, none in controls): 30% | torsion behavior of bridged grafts ([1]; 9 weeks, torsion at 1°/sec): prototypical brittle bone torsion behavior | biomechanical properties of scaffold-grafted femurs (maximum torque, torsional rigidity, ultimate twist) ([1]; 9 weeks, vs control): improved the biomechanical properties of the scaffold-grafted femurs especially in femurs with bridging unions | volume of the mineralized callus ([1]; PLA and PLA/βTCP scaffolds, 6 and 9 weeks post-reconstruction, vs control): increased the volume of the mineralized callus regardless of the scaffold type

Source: patent publication US20090227503A1, “PARATHYROID HORMONE TREATMENT FOR ENHANCED ALLOGRAFT AND TISSUE-ENGINEERED RECONSTRUCTION OF BONE DEFECTS” (UNIVERSITY OF ROCHESTER, priority 2008, published 2009)
